Measured values published in patent US4551547A, “Biocidal 2-aryl-1, 3-cyclopentanedione enol ester compounds” (Union Carbide Corporation, priority 1983, dated 1985).

How the values were obtained:
[1] = test system: two-spotted mite (adults and nymphal stages); experiment: Mite Foliage Spray Test (adults and nymphs); type: in vivo, Tetranychus urticae (Koch); design: key to Miticidal, Adult: A: Excellent Control; B: Partial Control; No Control; conditions: Table II; mortality count after four days
Protocol: Suspensions of the test compounds were prepared by dissolving one gram of compound in 50 milliliters of acetone in which had been dissolved 0.1 gram (10 percent of the weight of compound) of an alkylphenoxyethanol sufactant, as an emulsifying or dispersing agent. The resulting solution was mixed into 160 milliliters of water to give roughly 200 milliliters of a suspension containing the compound in finely divided form. The thus prepared stock suspension contained 0.5 percent by weight of compound. The test concentrations employed in the tests described below were obtained by diluting the stock suspension with water. The test procedures were as follows: Adults and nymphal stages of the two-spotted mite (Tetranychus urticae (Koch)), reared on Tender-green beam plants at 80±5° F. and 50±5 percent relative humidity, were the tests organisms. Infested leaves from a stock culture were placed of the primary leaves of two bean plants six to eight inches in height, growing in a two-and-a-half inch clay pot. 150-200 Mites, a sufficient number for testing, transferred from the excised leaves to the fresh plants in a period of twenty-four hours. Following the twenty-four hour transfer period, the excised leaves were removed from the infested plants. The test compounds were formulated by diluting the stock suspension with water to provide suspensions containing the desired amount of test compound per million parts of final formulation. The potted plants (one pot per compound) were placed on a revolving turntable and sprayed with 100-110 milliliters of tests compound formulation by use of a DeVilbis spray gun set at 40 psi, air pressure. This application, which lasted 30 seconds, was sufficient to wet the plants to run-off. As a control, 100-110 milliliters of a water solution containing acetone and emulsifier in the same concentrations as the test compound formulation, but containing no test compound, were also sprayed on infested plants. The sprayed plants were held at 80±5° F. and 50±5 percent relative humidity for four days, after which, a mortality count of motile forms was made on the leaves of the test plants. Any individual which was capable of locomotion upon prodding was considered living. In these tests the pesticidal activity of the compounds against mites and mite eggs was rated as follows: Tests were conducted in accordance with the procedures given at pages 17 to 21 supra. The results are expressed in the same manner as used in Table II, except with respect to miticidal activity. For mite adult and mite egg comparison purposes, results are given in parts per million (ppm) required for a 50 percent kill of mites or eggs, respectively.

Bean = experiment: Post-emergent herbicidal test, bean; type: in vivo; design: key: 1: no perceptible injury; 2: intermediate degrees of injury; 3: intermediate degrees of injury; 4: intermediate degrees of injury; 5: the plant was dead; conditions: Table II; 2500 parts per million, after ten days
Protocol: (§1) Suspensions of the test compounds were prepared by dissolving one gram of compound in 50 milliliters of acetone in which had been dissolved 0.1 gram (10 percent of the weight of compound) of an alkylphenoxyethanol sufactant, as an emulsifying or dispersing agent. The resulting solution was mixed into 160 milliliters of water to give roughly 200 milliliters of a suspension containing the compound in finely divided form. The thus prepared stock suspension contained 0.5 percent by weight of compound. The test concentrations employed in the tests described below were obtained by diluting the stock suspension with water. The test procedures were as follows:
(§2) Experiments were also conducted to determine the phytotoxicity of representative compositions with respect to healthy fresh plants. Solutions of the compounds were prepared as described above to provide a concentration of 2500 parts per million of the test compound. The test plants were sprayed in accordance with the procedure described above for the Mite Foliage Spray Test so as to deliver approximately 100 milliliters of test solutions to the leaves of each plant tested. The sprayed plants and controls were set aside for approximately one hour to allow the solutions to dry and were then placed in the greenhouse. After ten days the plants were visually inspected to determine the extent of foliage injury. A rating of 1 indicates no perceptible injury; 5 indicates the plant was dead and ratings of 2, 3 and 4 indicate intermediate degrees of injury based upon the number and extent to which leaves were injured.

Corn = experiment: Post-emergent herbicidal test, corn; type: in vivo; design: key: 1: no perceptible injury; 2: intermediate degrees of injury; 3: intermediate degrees of injury; 4: intermediate degrees of injury; 5: the plant was dead; conditions: Table II; 2500 parts per million, after ten days
Protocol: as §1, §2

Tomato = experiment: Post-emergent herbicidal test, tomato; type: in vivo; design: key: 1: no perceptible injury; 2: intermediate degrees of injury; 3: intermediate degrees of injury; 4: intermediate degrees of injury; 5: the plant was dead; conditions: Table II; 2500 parts per million, after ten days
Protocol: as §1, §2

Cotton = experiment: Post-emergent herbicidal test, cotton; type: in vivo; design: key: 1: no perceptible injury; 2: intermediate degrees of injury; 3: intermediate degrees of injury; 4: intermediate degrees of injury; 5: the plant was dead; conditions: Table II; 2500 parts per million, after ten days
Protocol: as §1, §2

Perennial rye grass = experiment: Preliminary herbicide seed germination test (pre-emergent), perennial rye grass; type: in vivo, Solium perenne; design: key: 5: no seedling emerged; 4: few seedlings emerged and/or very severe stunting; 3: moderate reduction in stand and/or moderate stunting.; 2: very slight reduction in stand and/or slight stunting; 1: no injury, seedlings appear no different with respect to stand or growth than untreated controls; conditions: Table II; ten to twelve days after application
Protocol: as §1
(§3) The following seeds were used in this test:
Perennial rye grass--Solium perenne
(§4) Two […] mixtures were prepared as follows:
(§5) Each of the above mixtures was rolled separately in 5 gallon containers for approximately one-half hour on ball mill to insure uniform mixing of seeds and soil. For each compound four 3-inch pots were filled with soil to within 11/2 inches of top of pots. To two of these pots were added 70 cc. of Mixture I. To the remaining 2 pots were added 70 cc. of Mixture II. The seed-soil mixture was tamped firmly, and the pots were removed to the greenhouse and watered lightly. About 2 hours after planting, 25 milliliters of the test formulation were added to one pot containing Mixture I and one pot containing Mixture II. An equal volume of a water solution containing acetone and an emulsifier in the same concentration as the herbicidal mixture but without the candidate herbicide was also added to each of the soil-seed mixtures. These pots are used as check or control units. The test compounds were formulated by diluting the stock suspension with water to obtain the desired concentration of the compound in parts per million of the final formulation. Each compound was tested at the same concentration. […] Ratings were made according to the following designations: […]

Crabgrass = experiment: Preliminary herbicide seed germination test (pre-emergent), crabgrass; type: in vivo, Digitaria sanguinalis; design: key: 5: no seedling emerged; 4: few seedlings emerged and/or very severe stunting; 3: moderate reduction in stand and/or moderate stunting.; 2: very slight reduction in stand and/or slight stunting; 1: no injury, seedlings appear no different with respect to stand or growth than untreated controls; conditions: Table II; ten to twelve days after application
Protocol: as §1, §3
Crabgrass--Digitaria sanguinalis
as §4, §5

[2] = test system: Red root pigweed (Amaranthus); experiment: Preliminary herbicide seed germination test (pre-emergent), red root pigweed; type: in vivo, Amaranthus retroflexus; design: key: 5: no seedling emerged; 4: few seedlings emerged and/or very severe stunting; 3: moderate reduction in stand and/or moderate stunting.; 2: very slight reduction in stand and/or slight stunting; 1: no injury, seedlings appear no different with respect to stand or growth than untreated controls; conditions: Table II; ten to twelve days after application
Protocol: as §1, §3
Red root pigweed--Amaranthus retroflexus
as §4, §5

Structure (SMILES)	Miticidal, Adult [1]	Post-emergent Herbicidal, Bean (Bean)	Post-emergent Herbicidal, Corn (Corn)	Post-emergent Herbicidal, Tomato (Tomato)	Post-emergent Herbicidal, Cotton (Cotton)	Pre-emergent Herbicidal, Rye (Perennial rye grass)	Pre-emergent Herbicidal, Crabgrass (Crabgrass)	Pre-emergent Herbicidal, Amaranthus [2]
CCCCC(CC)C(=O)OC1=C(c2ccccc2Cl)C(=O)CC1 (centres unmarked) [Compound 1]	A	3	4	2	3	5	5	5
O=C1CCC(OC(=O)c2ccccc2)=C1c1ccccc1Cl [Compound 2]	A	3	3	2	2	4	3	1
CC(=O)OC1=C(c2ccc(Cl)cc2Cl)C(=O)CC1 [Compound 3]	A	2	3	2	2	2	–	2
CC(C)C(=O)OC1=C(c2ccc(Cl)cc2Cl)C(=O)CC1 [Compound 4]	B	2	4	2	2	1	–	1
CCCCC(CC)C(=O)OC1=C(c2ccc(Cl)cc2Cl)C(=O)CC1 (centres unmarked) [Compound 5]	A	3	3	2	2	1	–	1
CCCCCCCCCCCCCCCC(=O)OC1=C(c2ccc(Cl)cc2Cl)C(=O)CC1 [Compound 6]	A	1	1	1	1	1	–	1
CCCCC(CC)C(=O)OC1=C(c2ccccc2C)C(=O)CC1 (centres unmarked) [Compound 7]	A	2	2	2	2	5	3	3
CCCCCCCCCCCCCCCC(=O)OC1=C(c2ccccc2C)C(=O)CC1 [Compound 8]	A	3	3	1	2	2	2	3
CCCCC(CC)C(=O)OC1=C(c2ccc(C)cc2C)C(=O)CC1 (centres unmarked) [Compound 9, 3-(2-ethylhexanoyloxy)-2-(2', 4'-dimethylphenyl)-2-cyclopentenone]	A	2	3	1	1	5	4	2
Cc1ccc(C2=C(OC(=O)c3ccccc3)CCC2=O)c(C)c1 [Compound 10]	C	3	3	1	1	3	2	1
CC(=O)OC1=C(c2cc(C)ccc2C)C(=O)CC1 [Compound 11]	A	2	2	3	2	4	1	3
Cc1ccc(C)c(C2=C(OC(=O)C(C)C)CCC2=O)c1 [Compound 12]	B	2	2	3	3	1	1	1
CCCCC(CC)C(=O)OC1=C(c2cc(C)ccc2C)C(=O)CC1 (centres unmarked) [Compound 13]	A	2	2	2	3	1	1	1
CCCCCCCCCCCCCCCC(=O)OC1=C(c2cc(C)ccc2C)C(=O)CC1 [Compound 14]	A	2	1	3	3	4	1	1
CC(=O)OC1=C(c2cc(C)ccc2C)C(=O)C(C)C1 (centres unmarked) [Compound 15]	A	2	3	2	2	4	2	3
